In patent US20210253598A1, “ARYL ANNULATED MACROCYCLIC INDOLE DERIVATIVES” (priority 2017, published 2021):
Values joined by “and” are separate entries in the source; they are usually repeats but may differ in a detail not shown here. Identical values can stand only once. Counter-ions that a name gives are not always drawn. Like-named read-outs stand apart in the source and are kept apart here.

Key:
SUDHL5 [1] = assay: Induction of cytotoxicity in SUDHL5 cells, CellTiter-Glo (Assay 6); type: cell-based; details: SUDHL5, 5 hours incubation, median, read-out: Cytotox SUDHL5 [M] (median)
Description: (§1) Induction of Cytotoxicity Upon Treatment of Cells with Selected Compounds
(§2) In principle, compounds that induce apoptosis will concomitantly induce cell cytotoxicity. Therefore, cytotoxicity assays were run in parallel in SUDHL5 and SUDHL10 cells.
(§3) As a control, medium without cells was also added to the plate. Cells were incubated in a humidified incubator at 37° C. overnight. […] Rim wells were excluded. The cells were incubated for 5 hours in a humidified incubator at 37° C. After this incubation, 30 μl of CellTiter-Glo® Luminescent Cell Viability reagent (Promega, G7573) was added to each well using the Multidrop Combi Reagent Dispenser, followed by 15 minutes incubation on a shaker at room temperature. Finally, luminescence was read at 0.1 ms, with a gain of 3000 using the PHERAstar FS microplate reader (BMG Labtech).

SUDHL10 [2] = assay: Induction of caspase-3/7 activity in SUDHL10 cells (Assay 4); type: cell-based; details: SUDHL10, 3 hours treatment, Caspase-Glo 3/7, median, read-out: Caspase SUDHL10 [M] (median)
Description: (§4) Induction of Caspase-3/7 Activity Upon Treatment of Cells with Selected Compounds
(§5) The BH3-domain of MCL-1 sequesters pro-apoptotic proteins, thereby inhibiting apoptosis. In contrast, MCL-1 inhibitors are expected to antagonize this effect leading to an increase in apoptosis, which can be determined by measuring the activity of caspase-3/7.
(§6) The activity of caspase-3/7 was determined in DLBCL (Diffuse large B-cell lymphoma) cell lines (SUDHL5 and SUDHL10) upon treatment with different compounds, using the Caspase-Glo® 3/7 reagent from Promega (G8092).
(§7) As a control, medium without cells was also added to the plate. Cells were incubated in a humidified incubator at 37° C. overnight.
(§8) Rim wells were excluded. The cells were incubated for 3 hours in a humidified incubator at 37° C. After this incubation, 30 μl of Caspase-Glo® 3/7 reagent (Promega G8092) was added to each well using the Multidrop Combi Reagent Dispenser, followed by 1 hour incubation at 37° C. Finally, luminescence was read at 0.1 ms, with a gain of 3000 using the PHERAstar FS microplate reader (BMG Labtech).
(§9) For the evaluation of the results, the background measured with “medium-only” was subtracted from all other values. Then, the values were normalized to DMSO-only treated cells (every value was divided by the mean of the DMSO control).

SUDHL5 [3] = assay: Anti-proliferative effect in SUDHL5 cells, CellTiter-Glo (Assay 7); type: cell-based; details: SUDHL5, 72 hours incubation, CellTiter-Glo, median, read-out: Antiproli SUDHL5 [M] (median)
Description: (§10) Assessment of the Anti-Proliferative Effect of Compounds in Different Cell Lines
(§11) The impact of compounds on the proliferation of different cell lines was assessed using the CellTiter-Glo® Luminescent Cell Viability reagent from Promega (G7573).
(§12) In parallel, cells were plated in a reference (day 0) plate for time zero determination. Cells were incubated in a humidified incubator at 37° C. overnight.
(§13) Rim wells were excluded. The cells were incubated for 72 hours in a humidified incubator at 37° C. The day 0 plate was measured by adding 30 μL/well of CTG solution (CellTiter-Glo® Luminescent Cell Viability reagent, Promega G7573) to time zero wells in the reference plate followed by a 10 minutes incubation and luminescence reading at 0.1 ms. using the PHERAstar FS microplate reader (BMG Labtech).
(§14) After 72 hours incubation, the treated plates were measured in the same way as the day 0 plate mentioned above. The Bella DRC Master Sheet was used to calculate IC50s, with CI=day 0 values and C0=DMSO control values.

SUDHL5 [4] = assay: Induction of caspase-3/7 activity in SUDHL5 cells (Assay 4); type: cell-based; details: SUDHL5, 3 hours treatment, Caspase-Glo 3/7, median, read-out: Caspase SUDHL5 [M] (median)
Description: as §4, §5, §6, §7, §8, §9

MCL-1 = MCL-1 (Homo sapiens, UniProt Q07820, K194A/K197A/R201A); assay: Protein-protein interaction assay MCL-1/Noxa BH3 peptide, TR-FRET (MCL-1 assay, Assay 1); type: binding; details: MCL-1 Assay [M] (median), MBP-MCL-1 / Noxa BH3 peptide
Description: The dose-dependent inhibition by the compounds described in this invention of the interaction between MCL-1 and the BH3 domain of Noxa (both human) was determined using a steady state binding competition assay with time-resolved fluorescence energy transfer (TR-FRET) readout. For that purpose MCL-1 (amino acids 173-321, N-terminal fused to Maltose Binding Protein (MBP), SEQ ID 1) and a synthetic Noxa BH3-derived peptide of sequence Biotin-PEG2-PEG2-PAELEVE-Nva-[…]-amide (SEQ ID 2) served as protein receptor and tracer ligand respectively. The MBP-MCL-1 was purchased from Beryllium (Bedford, Mass., USA). The expression and purification of this protein construct has been described elsewhere (DOI:10.1371/journal.pone.0125010). The Noxa BH3-derived peptide can be obtained from e.g. Biosyntan (Berlin, Germany).
For that, 100-fold concentrated DMSO solutions were prepared by serial dilutions (1:3.4) of a 2 mM stock solution in a clear, 384-well microtiter plate (Greiner Bio-One, Frickenhausen, Germany). From there, 50 nl were transferred in a dark test plate (Greiner Bio-One, Frickenhausen, Germany). The assay was initiated by addition of 2 μl of a 2,5-fold concentrated MBP-MCL-1 solution (usually for a 1 nM end concentration in 5 μl reaction volume) in aqueous assay buffer [50 mM Tris/HCl pH 7, 100 mM sodium chloride (NaCl), 50 mM potassium fluoride (KF), 0.005% Tween-20, 2 mM DTT, 0.1% bovine gamma globulin (BGG)] to the compounds in the assay plate. This was followed by a 10-minute incubation step at 22° C. for pre-equilibration of the putative complex between MBP-MCL-1 and the compounds.
The mixture was incubated in the dark for one hour at 22° C. and then overnight at 4° C. The formation of MCL-1/Noxa complexes was determined by measuring the resonance energy transfer of the anti-MBP-Eu-cryptate antibody to the streptavidin-XL665 present in the reaction.
The resulting data (ratio) were normalized, taking 0% inhibition as the mean value of control measurements (usually 32 data points) where all reagents were included. In this case 50 nl DMSO were used instead of compounds. […] IC50 values were determined by regression analysis based on a 4 parameter equation (minimum, maximum, IC50, Hill; Y=Max+(Min−Max)/(1+(X/IC50)^Hill) using the Screener Software (Genedata).

SUDHL10 [5] = assay: Induction of cytotoxicity in SUDHL10 cells, CellTiter-Glo (Assay 6); type: cell-based; details: SUDHL10, 5 hours incubation, median, read-out: Cytotox SUDHL10 [M] (median)
Description: as §1, §2, §3

A2780 = assay: Anti-proliferative effect in A2780 cells, CellTiter-Glo (Assay 7); type: cell-based; details: A2780, 72 hours incubation, CellTiter-Glo, several values per example, read-out: Antiproli A2780
Description: as §10, §11, §12, §13, §14

Chain of MCL-1 (Q07820 173-321 K194A/K197A/R201A, looked up): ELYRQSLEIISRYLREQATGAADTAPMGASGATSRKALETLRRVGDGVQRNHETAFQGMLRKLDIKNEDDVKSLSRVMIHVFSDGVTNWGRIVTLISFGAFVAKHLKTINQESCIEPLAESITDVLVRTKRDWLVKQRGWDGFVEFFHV

IC50 (A2780; Acetate Salt) [µM]	IC50 (A2780; Homo sapiens, A2780, 72 h) [µM]	SMILES	IC50 (SUDHL5 [1]; Homo sapiens, SU-DHL-5, 5 h) [M]	EC50 (SUDHL10 [2]; Homo sapiens, SU-DHL10, 3 h) [M]	IC50 (SUDHL5 [3]; Homo sapiens, SU-DHL-5, 72 h) [M]	EC50 (SUDHL5 [4]; Homo sapiens, SU-DHL-5, 3 h) [M]	IC50 (MCL-1) [M]	IC50 (SUDHL10 [5]; Homo sapiens, SU-DHL10, 5 h) [M]	IC50 (SUDHL5 [1]) [M]	EC50 (SUDHL10 [2]) [M]	IC50 (SUDHL5 [3]) [M]	EC50 (SUDHL5 [4]) [M]	IC50 (SUDHL10 [5]) [M]	IC50 (A2780)
–	–	Cc1c2c(nn1C)COCc1ccccc1Cn1c(C(=O)O)c(CCCOc3cccc4ccccc34)c3cccc-2c31 (racemic) [Example 1, (rac)-4,5-Dimethyl-17-[3-(naphthalen-1-yloxy)propyl]-5,7,9,14-tetrahydroindolo[7,1-fg]pyrazolo[3,4-d][2,8]benzoxazacycloundecine-16-carboxylic Acid]	1.1e-05	> 3.3e-05	9e-06	1e-05	1.4e-08	> 1.6e-05	–	–	–	–	–	–
–	–	Cc1c2c(nn1C)COCc1cccnc1Cn1c(C(=O)O)c(CCCOc3cccc4ccccc34)c3cccc-2c31 (racemic) [Example 4, (rac)-4,5-Dimethyl-17-[3-(naphthalen-1-yloxy)propyl]-5,7,9,14-tetrahydropyrazolo-[4′,3′:9,10]pyrido[3′,2′:3,4][1,6]oxazacycloundecino[8,7,6-hi]indole-16-carboxylic Acid]	1.2e-05	> 3.2e-05	1.4e-05	1.5e-05	5.3e-09	> 2.3e-05	–	–	–	–	–	–
–	–	Cc1c2c(nn1C)COCc1ncccc1Cn1c(C(=O)O)c(CCCOc3cccc4ccccc34)c3cccc-2c31 (racemic) [Example 7, (rac)-4,5-Dimethyl-17-[3-(naphthalen-1-yloxy)propyl]-5,7,9,14-tetrahydropyrazolo[4′,3′:9,10]-pyrido[2′,3′:3,4][1,6]oxazacycloundecino[8,7,6-hi]indole-16-carboxylic Acid]	3.6e-06	1.6e-05	4.6e-06	3e-06	–	1.5e-05	–	–	–	–	–	–
5.77	4.91	Cc1c2c(nn1C)CN(S(=O)(=O)c1ccc(N3CCOCC3)nc1)Cc1ccccc1Cn1c(C(=O)O)c(CCCOc3cccc4ccccc34)c3cccc-2c31 (racemic) [Example 17, (rac)-4,5-Dimethyl-8-{[6-(morpholin-4-yl)pyridin-3-yl]sulfonyl}-17-[3-(naphthalen-1-yloxy)propyl]-7,8,9,14-tetrahydro-5H-indolo[1,7-bc]pyrazolo[4,3-e][2,8]benzodiazacycloundecine-16-carboxylic Acid Acetate Salt]	3.1e-06	8.5e-06	3.9e-06	3e-06	3.4e-08	1.4e-05	–	–	–	–	–	–
–	–	Cc1c2c(nn1C)COCc1cccnc1Cn1c(C(=O)O)c(CCCOc3cccc4ccccc34)c3cccc-2c31 (single isomer, unassigned; enantiomer 1) [Example 5, 4,5-Dimethyl-17-[3-(naphthalen-1-yloxy)propyl]-5,7,9,14-tetrahydropyrazolo[4′,3′:9,10]-pyrido[3′,2′:3,4][1,6]oxazacycloundecino[8,7,6-hi]indole-16-carboxylic Acid (Enantiomer 1)]	–	–	–	–	2.9e-09	–	4.6e-06	1.4e-05	5.2e-06	5.4e-06	1.3e-05	–
–	–	Cc1c2c(nn1C)COCc1cccnc1Cn1c(C(=O)O)c(CCCOc3cccc4ccccc34)c3cccc-2c31 (single isomer, unassigned; enantiomer 2) [Example 6, 4,5-Dimethyl-17-[3-(naphthalen-1-yloxy)propyl]-5,7,9,14-tetrahydropyrazolo[4′,3′:9,10]-pyrido[3′,2′:3,4][1,6]oxazacycloundecino[8,7,6-hi]indole-16-carboxylic Acid (Enantiomer 2)]	–	–	–	–	1.1e-08	–	> 1.9e-05	> 3.3e-05	1.2e-05	> 2.2e-05	> 3.3e-05	–
–	–	Cc1c2c(nn1C)COCc1ncccc1Cn1c(C(=O)O)c(CCCOc3cccc4ccccc34)c3cccc-2c31 (single isomer, unassigned; enantiomer 2) [Example 9, 4,5-Dimethyl-17-[3-(naphthalen-1-yloxy)propyl]-5,7,9,14-tetrahydropyrazolo[4′,3′:9,10]-pyrido[2′,3′:3,4][1,6]oxazacycloundecino[8,7,6-hi]indole-16-carboxylic acid-N-ethylethanamine Salt (Enantiomer 2)]	–	–	–	–	3.2e-08	–	> 3.3e-05	> 3.3e-05	2e-05	> 3.3e-05	> 3.3e-05	–
–	–	Cc1c2c(nn1C)COCc1ccccc1Cn1c(C(=O)O)c(CCCOc3cccc4ccccc34)c3ccc(Cl)c-2c31 (single isomer, unassigned; enantiomer 2) [Example 38, (+)-3-Chloro-4,5-dimethyl-17-[3-(naphthalen-1-yloxy)propyl]-5,7,9,14-tetrahydroindolo[7,1-fg]pyrazolo[3,4-d][2,8]benzoxazacycloundecine-16-carboxylic Acid (Enantiomer 2)]	–	–	–	–	7.1e-09	–	2.3e-06	1.1e-05	–	1.7e-06	6.8e-06	–
–	–	Cc1c2c(nn1C)COCc1cccnc1Cn1c(C(=O)O)c(CCCOc3cccc4ccccc34)c3cccc-2c31 [Example 04]	–	–	–	–	–	–	–	–	–	–	–	31.1 µM and > 33 µM
